molecular target: HDM2 (Homo sapiens (Human), UniProt Q00987); test: HDM2 FRET assay (inhibition of p53 peptide binding to HDM2); details: truncated HDM2 residues 17 to 125, 0.5 nM; FITC labeled 8-mer peptide 3 nM; two hour incubation at room temperature
Description: Methods: An HDM2 FRET assay was developed to assess the compounds' inhibitory activity towards binding of p53 protein. […] (containing p53 binding surface, Science (1994) 265, 346-355), with N-terminal His and Thioredoxin tag was generated in pET32a expression vector and expressed in E. coli strain BL21(DE3)Rosetta. Protein was purified using Ni-affinity chromatography, followed by size exclusion chromatography using Superdex 75 26/60 column. […] After two hour incubation at room temperature in a humidified chamber plates were read on EnVision plate reader with the following settings: excitation: UV, […], two emission filters: 520 nm and 495 nm respectively. […] IC50 DETERMINATIONS: Dose-response curves were plotted from the inhibition data, from 10 point serial dilutions of inhibitory compounds. Concentration of compound was plotted against em520/Cem495 ratio signal. To generate IC50 values, the dose-response curves were fitted to a standard sigmoidal curve and IC50 values were derived by nonlinear regression analysis.

Chain of HDM2 (Q00987 17-125): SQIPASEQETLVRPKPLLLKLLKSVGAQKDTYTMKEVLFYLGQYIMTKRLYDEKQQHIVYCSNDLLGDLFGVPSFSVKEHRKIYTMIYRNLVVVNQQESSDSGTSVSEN

Compound	IC50 [µM]
Cc1c(-c2cc(C(C)C)ccn2)n(Cc2ccc(C(F)(F)F)cc2)c2c(N[C@H](C)C3CCC3)nc(C(=O)O)nc12 [Example 1.11, 4-{[(1R)-1-cyclobutylethyl]amino}-7-methyl-6-[4-(1-methylethyl)pyridin-2-yl]-5-[4-(trifluoromethyl)benzyl]-5H-pyrrolo[3,2-d]pyrimidine-2-carboxylic acid]	0.05
Cc1cccc(-c2cc3nc(C(=O)O)nc(N[C@H](C)C4CCC4)c3n2Cc2ccc(C(F)(F)F)cc2N)c1 [Example 2.1, 5-[2-amino-4-(trifluoromethyl)benzyl]-4-{[(1R)-1-cyclobutylethyl]amino}-6-(3-methylphenyl)-5H-pyrrolo[3,2-d]pyrimidine-2-carboxylic acid]	0.011
Cc1cccc(-c2cc3nc(C(=O)O)nc(N[C@H](C)C4CCC4)c3n2Cc2ccc(C(F)(F)F)cn2)c1 [Example 2.2, 4-{[(1R)-1-cyclobutylethyl]amino}-6-(3-methylphenyl)-5-{[5-(trifluoromethyl)pyridin-2-yl]methyl}-5H-pyrrolo[3,2-d]pyrimidine-2-carboxylic acid]	0.844
Cc1cccc(-c2cc3nc(C(=O)O)nc(N[C@H](C)C4CCC4)c3n2Cc2ccc(OC(F)(F)F)cc2)c1 [Example 2.3, 4-{[(1R)-1-cyclobutylethyl]amino}-6-(3-methylphenyl)-5-[4-(trifluoromethoxy)benzyl]-5H-pyrrolo[3,2-d]pyrimidine-2-carboxylic acid]	0.348
Cc1cccc(-c2cc3nc(C(=O)O)nc(N[C@H](C)C4CCC4)c3n2Cc2ccc(OC(F)(F)F)c(F)c2)c1 [Example 2.4, 4-{[(1R)-1-cyclobutylethyl]amino}-5-[3-fluoro-4-(trifluoromethoxy)benzyl]-6-(3-methylphenyl)-5H-pyrrolo[3,2-d]pyrimidine-2-carboxylic acid]	0.267
COc1cc(OC(F)(F)F)ccc1Cn1c(-c2cccc(C)c2)cc2nc(C(=O)O)nc(N[C@H](C)C3CCC3)c21 [Example 2.5, 4-{[(1R)-1-cyclobutylethyl]amino}-5-[2-methoxy-4-(trifluoromethoxy)benzyl]-6-(3-methylphenyl)-5H-pyrrolo[3,2-d]pyrimidine-2-carboxylic acid]	4.37
Cc1cccc(-c2cc3nc(C(=O)O)nc(N[C@H](C)C4CCC4)c3n2Cc2ccc(OC(F)F)cc2)c1 [Example 2.6, 4-{[(1R)-1-cyclobutylethyl]amino}-5-[4-(difluoromethoxy)benzyl]-6-(3-methylphenyl)-5H-pyrrolo[3,2-d]pyrimidine-2-carboxylic acid]	1.78
Cc1cccc(-c2cc3nc(C(=O)O)nc(N[C@H](C)C4CCC4)c3n2Cc2ccc(C(F)(F)F)c(F)c2)c1 [Example 2.7, 4-{[(1R)-1-cyclobutylethyl]amino}-5-[3-fluoro-4-(trifluoromethyl)benzyl]-6-(3-methylphenyl)-5H-pyrrolo[3,2-d]pyrimidine-2-carboxylic acid]	0.087
COc1ccc(Cn2c(-c3cccc(C)c3)cc3nc(C(=O)O)nc(N[C@H](C)C4CCC4)c32)cc1 [Example 2.8, 4-{[(1R)-1-cyclobutylethyl]amino}-5-(4-methoxybenzyl)-6-(3-methylphenyl)-5H-pyrrolo[3,2-d]pyrimidine-2-carboxylic acid]	6.19
Cc1cccc(-c2cc3nc(C(=O)O)nc(N[C@H](C)C4CCC4)c3n2Cc2ccc(Cl)c(F)c2)c1 [Example 3.1, 5-(4-chloro-3-fluorobenzyl)-4-{[(1R)-1-cyclobutylethyl]amino}-6-(3-methylphenyl)-5H-pyrrolo[3,2-d]pyrimidine-2-carboxylic acid]	0.021
Cc1cccc(-c2cc3nc(C(=O)O)nc(N[C@H](C)C4CCC4)c3n2Cc2ccc(C(F)F)cc2)c1 [Example 3.2, 4-{[(1R)-1-cyclobutylethyl]amino}-5-[4-(difluoromethyl)benzyl]-6-(3-methylphenyl)-5H-pyrrolo[3,2-d]pyrimidine-2-carboxylic acid]	0.53
Cc1cccc(-c2cc3nc(C(=O)O)nc(N[C@H](C)C4CCC4)c3n2Cc2ccc(C(F)(F)F)nc2)c1 [Example 3.3, 4-{[(1R)-1-cyclobutylethyl]amino}-6-(3-methylphenyl)-5-{[6-(trifluoromethyl)pyridin-3-yl]methyl}-5H-pyrrolo[3,2-d]pyrimidine-2-carboxylic acid]	0.178
Cc1cccc(-c2cc3nc(C(=O)O)nc(N[C@H](C)C4CCC4)c3n2Cc2ccc(Br)c(F)c2)c1 [Example 3.4, 5-(4-bromo-3-fluorobenzyl)-4-{[(1R)-1-cyclobutylethyl]amino}-6-(3-methylphenyl)-5H-pyrrolo[3,2-d]pyrimidine-2-carboxylic acid]	0.015
Cc1cccc(-c2cc3nc(C(=O)O)nc(N[C@H](C)C4CCC4)c3n2Cc2ccc(F)c(F)c2)c1 [Example 3.5, 4-{[(1R)-1-cyclobutylethyl]amino}-5-(3,4-difluorobenzyl)-6-(3-methylphenyl)-5H-pyrrolo[3,2-d]pyrimidine-2-carboxylic acid]	0.126
Cc1cccc(-c2cc3nc(C(=O)O)nc(N[C@H](C)C4CCC4)c3n2Cc2ccc(C)c(F)c2)c1 [Example 3.6, 4-{[(1R)-1-cyclobutylethyl]amino}-5-(3-fluoro-4-methylbenzyl)-6-(3-methylphenyl)-5H-pyrrolo[3,2-d]pyrimidine-2-carboxylic acid]	0.124
C[C@H]1CC[C@H](Cn2ccc3nc(C(=O)O)nc(-c4cccc(Cl)c4)c32)CC1 [Example 4.1, 4-(3-chlorophenyl)-5-[(trans-4-methylcyclohexyl)methyl]-5H-pyrrolo[3,2-d]pyrimidine-2-carboxylic acid]	0.294
C[C@H]1CC[C@H](Cn2ccc3nc(-c4noc(=O)[nH]4)nc(-c4cccc(Cl)c4)c32)CC1 [Example 4.2, 3-{4-(3-chlorophenyl)-5-[(trans-4-methylcyclohexyl)methyl]-5H-pyrrolo[3,2-d]pyrimidin-2-yl}-1,2,4-oxadiazol-5(4H)-one]	0.132
C[C@H]1CC[C@H](Cn2ccc3nc(C(=O)O)nc(-c4cncc(Cl)c4)c32)CC1 [Example 4.3, 4-(5-chloropyridin-3-yl)-5-[(trans-4-methylcyclohexyl)methyl]-5H-pyrrolo[3,2-d]pyrimidine-2-carboxylic acid]	0.247
C[C@H]1CC[C@H](Cn2ccc3nc(-c4noc(=O)[nH]4)nc(-c4cncc(Cl)c4)c32)CC1 [Example 4.4, 3-{4-(5-chloropyridin-3-yl)-5-[(trans-4-methylcyclohexyl)methyl]-5H-pyrrolo[3,2-d]pyrimidin-2-yl}-1,2,4-oxadiazol-5(4H)-one]	0.057
C[C@H]1CC[C@H](Cn2ccc3nc(-c4n[nH]c(=O)o4)nc(-c4cncc(Cl)c4)c32)CC1 [Example 4.5, 5-{4-(5-chloropyridin-3-yl)-5-[(trans-4-methylcyclohexyl)methyl]-5H-pyrrolo[3,2-d]pyrimidin-2-yl}-1,3,4-oxadiazol-2(3H)-one]	0.095
Cc1cn(C[C@H]2CC[C@H](C)CC2)c2c(-c3cccc(Cl)c3)nc(C(=O)O)nc12 [Example 5.1, 4-(3-chlorophenyl)-7-methyl-5-[(trans-4-methylcyclohexyl)methyl]-5H-pyrrolo[3,2-d]pyrimidine-2-carboxylic acid]	0.226
Cc1cn(C[C@H]2CC[C@H](C)CC2)c2c(-c3cccc(Cl)c3)nc(-c3noc(=O)[nH]3)nc12 [Example 5.2, 3-{4-(3-chlorophenyl)-7-methyl-5-[(trans-4-methylcyclohexyl)methyl]-5H-pyrrolo[3,2-d]pyrimidin-2-yl}-1,2,4-oxadiazol-5(4H)-one]	0.107
Cc1cn(C[C@H]2CC[C@H](C)CC2)c2c(-c3cncc(Cl)c3)nc(C(=O)O)nc12 [Example 5.3, 4-(5-chloropyridin-3-yl)-7-methyl-5-[(trans-4-methylcyclohexyl)methyl]-5H-pyrrolo[3,2-d]pyrimidine-2-carboxylic acid]	0.088
Cc1cn(C[C@H]2CC[C@H](C)CC2)c2c(-c3cncc(Cl)c3)nc(-c3noc(=O)[nH]3)nc12 [Example 5.4, 3-{4-(5-chloropyridin-3-yl)-7-methyl-5-[(trans-4-methylcyclohexyl)methyl]-5H-pyrrolo[3,2-d]pyrimidin-2-yl}-1,2,4-oxadiazol-5(4H)-one]	0.036
C[C@H]1CC[C@H](Cn2cc(-c3ccccc3)c3nc(C(=O)O)nc(-c4cncc(Cl)c4)c32)CC1 [Example 5.5, 4-(5-chloropyridin-3-yl)-5-[(trans-4-methylcyclohexyl)methyl]-7-phenyl-5H-pyrrolo[3,2-d]pyrimidine-2-carboxylic acid]	0.072
C[C@H]1CC[C@H](Cn2cc(Cc3ccccc3)c3nc(-c4n[nH]c(=O)o4)nc(-c4cncc(Cl)c4)c32)CC1 [Example 5.6, 5-{7-benzyl-4-(5-chloropyridin-3-yl)-5-[(trans-4-methylcyclohexyl)methyl]-5H-pyrrolo[3,2-d]pyrimidin-2-yl}-1,3,4-oxadiazol-2(3H)-one]	0.054
CC(C)Cc1cn(C[C@H]2CC[C@H](C)CC2)c2c(-c3cncc(Cl)c3)nc(C(=O)O)nc12 [Example 5.7, 4-(5-chloropyridin-3-yl)-5-[(trans-4-methylcyclohexyl)methyl]-7-(2-methylpropyl)-5H-pyrrolo[3,2-d]pyrimidine-2-carboxylic acid]	0.071
CC(C)Cc1cn(C[C@H]2CC[C@H](C)CC2)c2c(-c3cncc(Cl)c3)nc(-c3noc(=O)[nH]3)nc12 [Example 5.8, 3-[4-(5-chloropyridin-3-yl)-5-[(trans-4-methylcyclohexyl)methyl]-7-(2-methylpropyl)-5H-pyrrolo[3,2-d]pyrimidin-2-yl]-1,2,4-oxadiazol-5(4H)-one]	0.035
